Source: PMC9412534, “Diindolylmethane Derivatives: New Selective Blockers for T-Type Calcium Channels” (Membranes, 2022)
“Also recorded” adds a separate entry of the source.

Legend:
A549 cells = experiment: Cell viability MTT assay, A549; format: cell-based, human; conditions: for viability at 50 µM: A549, 50 µM, n = 4; for IC50: n = 3
Procedure: (§1) Human breast cancer cell line MCF-7 and T-47D, lung cancer cell line A549, and colon cancer cell line HT-29 were cultured under 5% carbon dioxide at 37 °C in DMEM Glutamax (Gibco, Life Technologies) supplemented with 10% (v/v) FBS. They were split in a ratio of 1:3–1:6 (ideally 2–4 × 10,000 cells/cm^2) when they reached 70–80% confluence using 0.25% Trypsin-EDTA. For cell viability MTT assay, cells were seeded into 96-well clear bottom culture plates (Corning, Lowell, MA, USA) at a density of 5 × 10^3 cells/well and settled at 37 °C for 24 h.
(§2) Seeded cells were treated with various concentrations of compounds for desired time period (24, 48 and 72 h). After the treatments, the media were removed from each well, and replaced with 25 μL of serum-free media and 25 μL of MTT Reagent (cat. no., ab211091; Abcam, Cambridge, MA, USA). The plate was then incubated at 37 °C for 3 h, and 75 μL of MTT Solvent (cat. no., ab211091; Abcam) was added into each well after incubation. The absorbance was evaluated at 590 nm. Cell-wells treated with 0.1% DMSO were used as positive control and no cell-wells were used as background control.

MCF-7 cells = experiment: Cell viability MTT assay, MCF-7; format: cell-based, human; conditions: for viability at 50 µM: MCF7, 50 µM, n = 4; for IC50: n = 3
Procedure: as §1, §2

[1] = target: T1, recombinant hCaV3.3 channels (Homo sapiens, UniProt Q9P0X4); experiment: Whole-cell patch-clamp (QPatch), CaV3.3; format: cell-based; conditions: for IC50: whole-cell current, holding potential −90 mV, n = 3–5; for extent of block of CaV3.3 whole-cell inward Ca2+ current: QPatch
T1 construct: the only CaV3.3-expressing cells described
Procedure: (§3) The human embryonic kidney 293 (HEK 293) cell lines (from Emmanuel Bourinet, Montpellier, France) stably expressing CaV3.2 or CaV3.3 were cultured under 5% carbon dioxide at 37 °C in Dulbecco’s Modified Eagle Medium (DMEM) Glutamax (Gibco, Life Technologies, Carlsbad, CA, USA) supplemented with 10% (v/v) fetal bovine serum (FBS), 100 U/mL penicillin, 100 μg/mL streptomycin (Gibco, Life Technologies, Carlsbad, CA, USA), and 750 μg/mL geneticin (G418) (Gibco, Life Technologies). The Chinese Hamster Ovary (CHO) cell lines (Emmanuel Bourinet, Montpellier, France) expressing CaV3.1 were cultured under 5% carbon dioxide at 37 °C in Alpha Minimum Essential Media (MEM) Glutamax (Gibco, Life Technologies), supplemented with 10% (v/v) fetal bovine serum (FBS) and 300 μg/mL geneticin (G418) (Gibco, Life Technologies). The human neuroblastoma SH-SY5Y cells (Victor Diaz, Goettingen, Germany) were cultured under 5% carbon dioxide at 37 °C in RPMI 1640 antibiotic-free medium (Invitrogen, Carlsbad, CA, USA), supplemented with 15% FBS and 2 mM GlutaMAX™ (Invitrogen). D-PBS (Gibco, Life Technologies) was used to wash the cells, and 0.25% Trypsin-EDTA (Gibco, Life Technologies) was used to detach cells from the flask surface. They were split in a ratio of 1:5 (ideally 1000 cells/cm^2) when they reached 70–80% confluence (every 2–3 days). Transiently transfected CaV3.1 HEK293 T cells were used in FLIPR Assays. HEK 293 T cells were cultured under 5% carbon dioxide at 37 °C in DMEM supplemented with 10% (v/v) FBS. D-PBS was used to wash the cells, and 0.25% Trypsin-EDTA was used to detach cells from the flask surface. The cells were split and seeded at 6 million cells per T175 flask, to reach 70–80% confluence after 24 h. The next day, 12 μg DNA of human CaV3.1 was incubated in 900 μL serum-free DMEM with 36 μL FuGENE HD transfection reagent (Promega Corporation, Madison, WI, USA) (1:3 DNA/Fugene ratio) for 20 min, and then the mixture was added into the cell flask slowly, drop by drop. After the transfection, the cells were cultured under 5% carbon dioxide at 37 °C for 24 h and then moved to a 28 °C incubator.
Whole-cell patch-clamp experiments were performed on an automated electrophysiology platform QPatch 16 X (Sophion Bioscience A/S, Ballerup, Denmark) in single-hole configuration using 16-channel planar patch chip QPlates (Sophion Bioscience A/S). The extracellular recording solution contained, in mM: TEACl 157, MgCl2 0.5, CaCl2 5, and HEPES 10; pH 7.4 adjusted with TEAOH; and osmolarity 320 mOsm. The intracellular pipette solution contained, in mM: CsF 140, EGTA 1, HEPES 10, and NaCl 10; pH 7.2 adjusted with CsOH; and osmolarity 325 mOsm. Compounds were diluted in extracellular recording solution with 0.1% BSA at the concentrations stated (DMSO ≤ 0.1%), and the effects of compounds were compared to the control (extracellular solution with 0.1% BSA) parameters within the same cell. Compounds’ incubation time varied from two (for the highest concentration) to five (for the lowest concentration) minutes by applying the voltage protocol 10–30 times at 10 s intervals to ensure steady-state inhibition was achieved. The effects of compounds were obtained using 200 ms voltage steps to peak potential from a holding potential of −90 mV. Current–voltage (I–V) relationships were obtained by holding the cells at a potential of −100 mV before applying 50 ms pulses to potentials from −75 to +50 mV every 5 s in 5 mV increments. […]

CaV1 = experiment: HVA L-type calcium channel FLIPR assay in SH-SY5Y cells; format: cell-based, human; conditions: 1 µM CVID present, n = 3, read-out: IC50 CaV1 (HVA CaVs)
Procedure: as §3
SH-SY5Y cells were seeded into 384-well black wall clear bottom plates at a density of 15,000 cells per well, resulting in 90–95% confluence after 24 h. The media were then removed from the wells and replaced with 20 μL of 10% calcium 4 dye (Molecular Devices) in physiological salt solution (PSS) (containing 5.9 mM KCl, 1.4 mM MgCl2, 10 mM HEPES, 1.2 mM NaH2 PO4, 5 mM NaHCO3, 140 mM NaCl, 11.5 mM glucose, and 1.8 mM CaCl2, pH 7.4) with 0.1% BSA. As reported, for N-type calcium channel FLIPR assays the cells were pre-incubated with 10 µM nifedipine added in the dye to ensure full inhibition of L-type calcium responses. For L-type calcium channel FLIPR assays, the cells were pre-incubated with 1 µM CVID added in the dye to ensure full inhibition of N-type calcium responses. Positive control on the first reagent plate contained 15 μL of PSS (0.1% BSA), whereas PSS (0.1% BSA) containing 1 µM CVID and 10 µM nifedipine (final concentration) was used as a negative control. The fluorescence readings were recorded and converted as described previously, and agonist containing 90 mM KCl + 5 mM CaCl2 was used in the second addition.

[2] = Homo sapiens, A549, 72 h, 72 h treatment
[3] = Homo sapiens, MCF7, 72 h, 72 h treatment

T1 sequence (Q9P0X4 whole entry): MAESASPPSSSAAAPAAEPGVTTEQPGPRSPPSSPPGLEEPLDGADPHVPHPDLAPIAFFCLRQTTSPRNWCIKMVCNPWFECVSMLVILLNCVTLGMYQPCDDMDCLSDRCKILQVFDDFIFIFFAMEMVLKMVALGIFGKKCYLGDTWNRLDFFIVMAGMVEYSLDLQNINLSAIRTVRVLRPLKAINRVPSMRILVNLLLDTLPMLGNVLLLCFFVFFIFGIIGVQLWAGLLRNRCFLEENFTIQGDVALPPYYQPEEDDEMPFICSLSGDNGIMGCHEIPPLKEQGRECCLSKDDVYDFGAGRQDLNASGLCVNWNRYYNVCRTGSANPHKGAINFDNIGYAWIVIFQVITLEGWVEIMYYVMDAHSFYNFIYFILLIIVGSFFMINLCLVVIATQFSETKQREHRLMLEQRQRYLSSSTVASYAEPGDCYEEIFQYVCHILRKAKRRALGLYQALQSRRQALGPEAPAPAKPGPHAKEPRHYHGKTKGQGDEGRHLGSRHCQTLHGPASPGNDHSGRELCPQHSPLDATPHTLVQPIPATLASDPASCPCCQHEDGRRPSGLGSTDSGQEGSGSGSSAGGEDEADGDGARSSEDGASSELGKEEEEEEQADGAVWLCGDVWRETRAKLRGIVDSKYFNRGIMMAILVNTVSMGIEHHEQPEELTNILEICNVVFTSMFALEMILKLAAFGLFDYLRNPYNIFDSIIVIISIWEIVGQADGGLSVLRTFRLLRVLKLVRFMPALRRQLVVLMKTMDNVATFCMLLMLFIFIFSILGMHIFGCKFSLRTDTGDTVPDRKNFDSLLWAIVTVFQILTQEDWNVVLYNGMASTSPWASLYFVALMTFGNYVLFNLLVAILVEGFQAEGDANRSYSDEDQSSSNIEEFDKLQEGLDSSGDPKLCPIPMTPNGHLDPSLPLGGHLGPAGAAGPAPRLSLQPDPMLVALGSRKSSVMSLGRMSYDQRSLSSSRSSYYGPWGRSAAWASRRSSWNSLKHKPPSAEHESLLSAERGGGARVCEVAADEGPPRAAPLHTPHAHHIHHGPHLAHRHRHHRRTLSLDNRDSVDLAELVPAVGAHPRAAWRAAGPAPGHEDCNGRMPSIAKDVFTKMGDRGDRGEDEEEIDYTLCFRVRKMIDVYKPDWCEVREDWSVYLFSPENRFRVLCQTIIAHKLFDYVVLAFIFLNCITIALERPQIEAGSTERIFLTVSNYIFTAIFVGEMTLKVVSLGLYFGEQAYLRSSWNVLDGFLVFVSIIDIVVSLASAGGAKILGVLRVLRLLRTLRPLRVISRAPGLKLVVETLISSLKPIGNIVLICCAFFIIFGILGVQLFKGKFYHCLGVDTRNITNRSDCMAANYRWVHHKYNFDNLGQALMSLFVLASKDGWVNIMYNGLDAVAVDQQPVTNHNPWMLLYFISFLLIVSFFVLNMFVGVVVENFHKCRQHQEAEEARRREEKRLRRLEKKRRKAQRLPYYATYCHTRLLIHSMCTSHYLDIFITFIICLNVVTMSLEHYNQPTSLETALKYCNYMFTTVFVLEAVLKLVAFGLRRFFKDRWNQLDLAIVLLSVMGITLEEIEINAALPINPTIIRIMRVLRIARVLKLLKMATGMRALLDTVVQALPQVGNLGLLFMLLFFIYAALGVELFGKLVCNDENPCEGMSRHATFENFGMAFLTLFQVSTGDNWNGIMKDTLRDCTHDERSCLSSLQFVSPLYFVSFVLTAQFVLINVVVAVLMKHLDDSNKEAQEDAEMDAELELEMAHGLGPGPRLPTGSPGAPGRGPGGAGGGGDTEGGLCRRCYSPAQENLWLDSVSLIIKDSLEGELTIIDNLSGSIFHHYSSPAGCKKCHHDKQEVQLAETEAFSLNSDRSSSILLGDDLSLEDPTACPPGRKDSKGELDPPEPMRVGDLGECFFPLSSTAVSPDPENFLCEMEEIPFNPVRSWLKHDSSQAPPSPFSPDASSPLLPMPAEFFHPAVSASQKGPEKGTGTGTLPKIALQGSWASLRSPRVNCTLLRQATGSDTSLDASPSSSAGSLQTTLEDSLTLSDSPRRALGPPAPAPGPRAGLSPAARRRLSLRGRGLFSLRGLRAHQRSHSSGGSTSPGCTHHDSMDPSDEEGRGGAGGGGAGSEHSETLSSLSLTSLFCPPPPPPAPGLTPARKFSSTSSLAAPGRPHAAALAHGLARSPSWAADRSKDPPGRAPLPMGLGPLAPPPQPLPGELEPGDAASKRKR

Row | SMILES | viability at 50 µM (A549 cells; Homo sapiens, 72 h treatment) | IC50 (A549 cells; [2]) | viability at 50 µM (MCF-7 cells; Homo sapiens, 72 h treatment) | IC50 (MCF-7 cells; [3]) | IC50 [1] | IC50 (CaV1) | extent of block of CaV3.3 whole-cell inward Ca2+ current [1] | IC50 (A549 cells; 72 h treatment) | IC50 (A549 cells; Homo sapiens, A549, 24 h, 24 h treatment) | IC50 (A549 cells; Homo sapiens, A549, 48 h, 48 h treatment) | IC50 (MCF-7 cells; 72 h treatment) | IC50 (MCF-7 cells; Homo sapiens, MCF7, 24 h, 24 h treatment)
1 | c1ccc2c(Cc3c[nH]c4ccccc34)c[nH]c2c1 [DIM, 3,3′-diindolylmethane, reference compound] | 55.6 ± 1.13% | 47 µM | 3.65 ± 0.24% | 27 µM | 9.63 ± 0.97 µM | 68.6 ± 6.65 µM |  |  |  |  |  | 
2 | O=C(c1c[nH]c2ccccc12)c1c[nH]c2ccccc12 [DIM-one, 3,3′-diindolylmethanone] | 81.3 ± 3% | 66 µM | 52.3 ± 3.12% | 42 µM | > 50 µM | 61 ± 3.99 µM | poor inhibition |  |  |  |  | 
3 | O=C(c1c[nH]c2cc(Br)ccc12)c1c[nH]c2cc(Br)ccc12 [IV] | 2.92 ± 0.29% | 3 µM | 6.35 ± 0.46% | 6 µM |  | 38.8 ± 5.01 µM |  | 3.5 µM | 8 µM | 4.7 µM | 6.1 µM | 9.8 µM
4 | O=C(c1cn(Cc2ccccc2)c2ccccc12)c1cn(Cc2ccccc2)c2ccccc12 [IX, bis(1-benzyl-1H-indol-3-yl)methanone] |  |  |  |  | 2.09 ± 0.69 µM | 48 ± 2.79 µM | partially blocked; also recorded: only partial inhibition |  |  |  |  | 
